This passage reports IC50 results from ChEMBL document CHEMBL6114992, “Design, synthesis, biological evaluation, and mechanism of action of new pyrazines as anticancer agents in vitro and in vivo” (Bioorg Med Chem, 2025).

Format in all cases: functional, cell-based
One assay has as its system U-937. Description: Antiproliferative activity against human U-937 cells assessed as inhibition of cell growth incubated for 72 hrs by MTT assay. The conditions noted are these: U-937, 72 h. For orientation: Tetrazolium dyes change colour on reduction, which living cells bring about.
The nature of assay [1]: Antiproliferative activity against human SK-OV-3/Taxol cells assessed as inhibition of cell growth incubated for 72 hrs by MTT assay. The note with it: SK-OV-3, 72 h.
For the next assay, the system named is THP-1. Description: Antiproliferative activity against human THP-1 cells assessed as inhibition of cell growth incubated for 72 hrs by MTT assay. The note with it: THP-1, 72 h.
The next assay concerns KG-1. Description: Antiproliferative activity against human KG-1 cells assessed as inhibition of cell growth incubated for 72 hrs by MTT assay. The note with it: KG-1, 72 h.
The test system of a further assay is SK-OV-3. Description: Antiproliferative activity against human SK-OV-3 cells assessed as inhibition of cell growth incubated for 72 hrs by MTT assay. The conditions noted are these: SK-OV-3, 72 h.

What is called IC50 is the concentration that gives 50% inhibition. For `CCc1nccnc1C(=O)/C=C/c1cccs1`, the IC50 with U-937 stood at 10 µM; in assay [1] it was 10.9 µM; in the assay with THP-1 it was 10.3 µM; with KG-1, 19.6 µM; with SK-OV-3, 9.89 µM.
Turning to `CCc1nccnc1C(=O)/C=C/c1ccc(OC)cc1`, the IC50 is 5.24 µM with U-937; 9.88 µM in assay [1]; 6.02 µM in the assay with THP-1; 22.7 µM in the assay on KG-1; 11 µM in the assay on SK-OV-3.
For the compound `Cc1nccnc1C(=O)/C=C/c1cccc(Br)c1`, the half-inhibitory concentration (IC50) came out at 1.58 µM with U-937; 1.46 µM in assay [1]; 1.64 µM in the assay with THP-1; 0.08 µM in the assay on KG-1; 1.63 µM in the assay on SK-OV-3.
Taken in the same sequence, the figures for `O=C(/C=C/c1cccc(Cl)c1Cl)c1cnccn1` were 19 µM, above 50 µM, 12.2 µM, 54.8 µM and above 50 µM.
Taken in the same sequence, the figures for `CCc1nccnc1C(=O)/C=C/c1ccccc1Br` were 1.58 µM, 8.35 µM, 4.57 µM, 3.58 µM and 7.93 µM.
`CCc1nccnc1C(=O)/C=C/c1cc2c(cc1[N+](=O)[O-])OCO2`: the IC50 in the assay on U-937 is 3.39 µM; in assay [1] it was 4.75 µM; with THP-1, 3.19 µM; in the assay with KG-1 it was 9.24 µM; in the assay with SK-OV-3 it was 4.29 µM.
The corresponding values for `O=C(/C=C/c1ccccc1F)c1cnccn1` are 11.9 µM, 6.18 µM, 11.9 µM, 9.89 µM and 3.88 µM.
Taken in the same sequence, the figures for `CCc1nccnc1C(=O)/C=C/c1cc2ccccc2o1` were 17.4 µM, 16.4 µM, 12.9 µM, 22.5 µM and 17.3 µM.
As for `N#Cc1cccc(/C=C/C(=O)c2cnccn2)c1`, the IC50 in the assay on U-937 amounted to 7.41 µM; in assay [1] it was 13.7 µM; in the assay with THP-1, 9.69 µM; with KG-1 it was 5.87 µM; in the assay on SK-OV-3, 10.7 µM.
Turning to `Cc1nccnc1C(=O)/C=C/c1ccccc1Br`, the IC50 came to 1.23 µM with U-937; 2.72 µM in assay [1]; 1.95 µM with THP-1; 2.75 µM with KG-1; 3.22 µM in the assay with SK-OV-3.
Take `Cc1nccnc1C(=O)/C=C/c1ccc(C#N)cc1`: the IC50 in the assay with U-937 came out at 2.08 µM; in assay [1], 4.63 µM; in the assay on THP-1, 0.72 µM; in the assay on KG-1, 1.01 µM; with SK-OV-3, 4.49 µM.
The corresponding values for `O=C(/C=C/c1ccccc1Cl)c1cnccn1` are 11.4 µM, 10.2 µM, 11.8 µM, 8.34 µM and 7.18 µM.
On to `CCc1nccnc1C(=O)/C=C/c1ccc(N(CC)CC)cc1`, for which the IC50 in the assay on U-937 was 30.4 µM; in assay [1], above 50 µM; in the assay with THP-1, 29.5 µM; in the assay with KG-1, 24.7 µM; in the assay with SK-OV-3 it was above 50 µM.
On to `O=C(/C=C/c1ccc(-c2ccccc2)cc1)c1cnccn1`, for which the IC50 was 31.8 µM in the assay with U-937; 16.3 µM in assay [1]; above 50 µM in the assay on THP-1; above 50 µM with KG-1; 16.6 µM with SK-OV-3.
As for `CCc1nccnc1C(=O)/C=C/C=C/CCC=C(C)C`, the IC50 in the assay on U-937 is 39.7 µM; in assay [1], above 50 µM; in the assay on THP-1, above 50 µM; with KG-1, 35.7 µM; in the assay on SK-OV-3, above 50 µM.
In the case of `Cc1ccccc1/C=C/C(=O)c1nccnc1C`, the IC50 was 2.55 µM in the assay with U-937; 3.8 µM in assay [1]; 4.97 µM in the assay on THP-1; 13 µM in the assay with KG-1; 2.59 µM in the assay on SK-OV-3.
For `Cc1nccnc1C(=O)/C=C/c1ccccn1`, the IC50 in the assay on U-937 was 6.55 µM; in assay [1], 11.1 µM; in the assay on THP-1, 6.22 µM; in the assay with KG-1, 5.39 µM; in the assay with SK-OV-3 it was 10 µM.
The corresponding values for `CCc1nccnc1C(=O)/C=C/c1cccc(C#N)c1` are 0.62 µM, 2.89 µM, 0.98 µM, 3.91 µM and 2.53 µM.
For the compound `Cc1nccnc1C(=O)/C=C/c1ccc(C(C)(C)C)cc1`, the IC50 with U-937 was found to be 18.5 µM; in assay [1], 14.2 µM; in the assay on THP-1, 27.2 µM; in the assay on KG-1, 44.1 µM; with SK-OV-3, 16.6 µM.
Taken in the same sequence, the figures for `CCc1nccnc1C(=O)/C=C/c1ccc(F)cc1F` were 8.02 µM, 7.97 µM, 5.71 µM, 25.7 µM and 5.24 µM.
The corresponding values for `CCc1nccnc1C(=O)/C=C/c1ccccc1C` are 3.43 µM, 10.8 µM, 4.91 µM, 22.9 µM and 8.68 µM.
The corresponding values for `Cc1nccnc1C(=O)/C=C/c1ccc(Cl)cc1Cl` are 4.66 µM, 6.71 µM, 9.16 µM, 7.67 µM and 6.39 µM.
As to `CC(/C=C/C(=O)c1nccnc1C)=C\c1ccccc1`, the IC50 was found to be 2.13 µM in the assay on U-937; 6.45 µM in assay [1]; 4.53 µM in the assay with THP-1; 4.78 µM in the assay on KG-1; 7.3 µM in the assay with SK-OV-3.
The corresponding values for `Cc1nccnc1C(=O)/C=C/c1ccccc1F` are 22.6 µM, 10.7 µM, 5.5 µM, 5.38 µM and 10.2 µM.
As to `CCc1nccnc1C(=O)/C=C/c1cccc(C)c1`, the IC50 in the assay on U-937 is 6.89 µM; in assay [1] it was 5.6 µM; with THP-1, 7.78 µM; in the assay on KG-1 it was 10.3 µM; in the assay on SK-OV-3, 4.52 µM.
Taken in the same sequence, the figures for `Cc1nccnc1C(=O)/C=C/c1ccc(S(C)(=O)=O)cc1` were 0.76 µM, 3.31 µM, 1.46 µM, 4.37 µM and 3.21 µM.
Taken in the same sequence, the figures for `CCc1nccnc1C(=O)/C=C/c1ccc(Br)cc1` were 1.93 µM, 5.93 µM, 5.34 µM, 9.31 µM and 3.88 µM.
`O=C(/C=C/c1ccccc1N1CCOCC1)c1cnccn1`: the IC50 with U-937 was 7.58 µM; in assay [1], 3.04 µM; with THP-1, 8.39 µM; with KG-1, 2.13 µM; in the assay with SK-OV-3, 2.43 µM.
Taken in the same sequence, the figures for `CCc1nccnc1C(=O)/C=C/c1ccccc1N1CCOCC1` were 4.45 µM, 3.96 µM, 3.44 µM, 5.46 µM and 4.05 µM.
Regarding `CCc1nccnc1C(=O)/C=C/c1ccc(S(C)(=O)=O)cc1`, the IC50 came to 1.94 µM in the assay with U-937; 6.19 µM in assay [1]; 1.38 µM in the assay with THP-1; 3.64 µM with KG-1; 3.42 µM in the assay on SK-OV-3.
As to `CCc1nccnc1C(=O)/C=C/c1cccc(F)c1`, the IC50 in the assay with U-937 is 0.66 µM; in assay [1], 6.34 µM; with THP-1, 6.22 µM; in the assay with KG-1, 3.47 µM; with SK-OV-3, 4.26 µM.
On to `CCc1nccnc1C(=O)/C=C/C=C/c1ccccc1`, for which the IC50 in the assay with U-937 came to 7.76 µM; in assay [1], 34 µM; in the assay on THP-1, 21.6 µM; in the assay on KG-1, 19.1 µM; with SK-OV-3, 33 µM.
Taken in the same sequence, the figures for `O=C(/C=C/c1cccc(Br)c1)c1cnccn1` were 8.19 µM, 17 µM, 11 µM, 23.4 µM and 13.5 µM.
Taken in the same sequence, the figures for `Cc1nccnc1C(=O)/C=C/c1ccc(Br)cc1` were 11.3 µM, 13.7 µM, 31.1 µM, 20.9 µM and 12.7 µM.
Turning to `O=C(/C=C/c1cccs1)c1cnccn1`, the IC50 in the assay on U-937 was 6.18 µM; in assay [1] it was above 50 µM; in the assay on THP-1, 10.1 µM; in the assay on KG-1 it was 11.9 µM; in the assay on SK-OV-3, above 50 µM.
As to `CCc1nccnc1C(=O)/C=C/c1ccc(Cl)cc1Cl`, the IC50 in the assay on U-937 worked out at 9.99 µM; in assay [1], 6.81 µM; with THP-1, 8.28 µM; with KG-1 it was 5.99 µM; in the assay with SK-OV-3, 6.99 µM.
Taken in the same sequence, the figures for `O=C(/C=C/c1ccc(Br)cc1)c1cnccn1` were above 50 µM, above 50 µM, 23.7 µM, 20.4 µM and above 50 µM.
The corresponding values for `Cc1cccc(/C=C/C(=O)c2cnccn2)c1` are 16.3 µM, 25.9 µM, 20.3 µM, 9.84 µM and 28.5 µM.
On to `Cc1ccccc1/C=C/C(=O)c1cnccn1`, for which the IC50 in the assay on U-937 worked out at 23.6 µM; in assay [1], 33.7 µM; in the assay with THP-1, 15.7 µM; in the assay with KG-1 it was 15.2 µM; in the assay on SK-OV-3, 31.2 µM.
Taken in the same sequence, the figures for `CCN(CC)c1ccc(/C=C/C(=O)c2nccnc2C)cc1` were 6.4 µM, 8.29 µM, 8.07 µM, 7.14 µM and 3.39 µM.
The corresponding values for `Cc1nccnc1C(=O)/C=C/c1cccc(Cl)c1` are 1.6 µM, 1.57 µM, 1.35 µM, 2.15 µM and 2.02 µM.
